These compounds were tested against human NaV 1.8 (Homo sapiens, UniProt Q9Y5Y9) (assay: E-VIPR assay for detecting and measuring NaV inhibition properties). Settings: E-VIPR assay conducted in the absence of human serum (compounds marked *); HEK cells expressing truncated human NaV 1.8; read-out: IC50.
Sequence of human NaV 1.8 (Q9Y5Y9 whole entry, looked up, the tested form may be a part): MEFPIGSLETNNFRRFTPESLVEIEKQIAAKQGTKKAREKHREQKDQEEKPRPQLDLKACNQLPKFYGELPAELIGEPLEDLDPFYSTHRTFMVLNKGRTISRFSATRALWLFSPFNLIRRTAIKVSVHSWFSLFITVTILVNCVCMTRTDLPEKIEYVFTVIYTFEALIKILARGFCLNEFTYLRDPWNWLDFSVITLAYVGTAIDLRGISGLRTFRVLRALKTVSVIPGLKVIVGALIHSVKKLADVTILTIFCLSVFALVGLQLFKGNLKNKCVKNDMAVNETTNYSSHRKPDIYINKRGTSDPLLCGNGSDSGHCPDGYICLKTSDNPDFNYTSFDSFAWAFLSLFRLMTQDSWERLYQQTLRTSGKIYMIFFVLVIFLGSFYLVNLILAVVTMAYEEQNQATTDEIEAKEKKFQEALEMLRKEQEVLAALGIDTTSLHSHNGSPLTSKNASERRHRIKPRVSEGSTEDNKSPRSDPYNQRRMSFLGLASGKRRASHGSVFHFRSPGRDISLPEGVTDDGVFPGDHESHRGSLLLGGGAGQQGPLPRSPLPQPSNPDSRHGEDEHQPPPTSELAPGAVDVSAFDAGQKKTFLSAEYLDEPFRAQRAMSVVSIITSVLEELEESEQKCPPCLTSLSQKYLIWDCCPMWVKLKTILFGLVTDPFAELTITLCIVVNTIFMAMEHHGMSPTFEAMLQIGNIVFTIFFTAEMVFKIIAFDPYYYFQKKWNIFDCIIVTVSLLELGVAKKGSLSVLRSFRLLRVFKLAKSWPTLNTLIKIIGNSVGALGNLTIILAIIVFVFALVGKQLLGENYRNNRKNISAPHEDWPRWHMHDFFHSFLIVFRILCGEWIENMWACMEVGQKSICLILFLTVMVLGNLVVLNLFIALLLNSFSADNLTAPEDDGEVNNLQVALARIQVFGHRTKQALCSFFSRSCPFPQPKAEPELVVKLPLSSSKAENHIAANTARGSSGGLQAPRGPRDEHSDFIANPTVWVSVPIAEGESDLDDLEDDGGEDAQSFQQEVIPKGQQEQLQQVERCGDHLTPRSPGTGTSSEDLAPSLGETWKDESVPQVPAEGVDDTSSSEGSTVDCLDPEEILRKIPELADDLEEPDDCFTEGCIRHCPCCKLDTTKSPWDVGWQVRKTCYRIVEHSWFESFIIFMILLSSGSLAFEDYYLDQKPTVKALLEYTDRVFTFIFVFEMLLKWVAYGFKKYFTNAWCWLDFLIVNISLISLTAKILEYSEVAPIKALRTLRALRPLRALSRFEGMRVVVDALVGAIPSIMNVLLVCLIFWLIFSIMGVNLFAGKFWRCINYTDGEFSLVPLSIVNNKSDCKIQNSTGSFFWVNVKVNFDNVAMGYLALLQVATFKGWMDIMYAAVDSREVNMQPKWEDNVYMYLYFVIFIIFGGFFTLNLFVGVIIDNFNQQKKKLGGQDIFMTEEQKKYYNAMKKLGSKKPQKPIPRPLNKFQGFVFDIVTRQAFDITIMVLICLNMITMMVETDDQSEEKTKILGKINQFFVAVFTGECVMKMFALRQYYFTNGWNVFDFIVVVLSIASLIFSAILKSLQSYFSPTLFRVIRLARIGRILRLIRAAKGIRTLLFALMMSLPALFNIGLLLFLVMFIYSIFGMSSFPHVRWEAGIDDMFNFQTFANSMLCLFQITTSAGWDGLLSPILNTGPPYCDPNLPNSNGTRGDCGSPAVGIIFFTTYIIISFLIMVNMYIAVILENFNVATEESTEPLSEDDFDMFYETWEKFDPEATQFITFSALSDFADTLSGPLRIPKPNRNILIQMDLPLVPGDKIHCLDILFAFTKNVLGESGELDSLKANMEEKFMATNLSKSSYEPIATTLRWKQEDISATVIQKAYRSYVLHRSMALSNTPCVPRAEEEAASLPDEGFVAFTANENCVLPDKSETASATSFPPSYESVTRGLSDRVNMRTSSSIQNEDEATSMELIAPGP
Assay type: cell-based
In short: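 Membrane-potential (coumarin/oxonol) readout after 10 s of 10 Hz biphasic electrical stimulation on E-VIPR. Compounds: 11-point 3-fold dilutions, […], 0.625% DMSO, 30 min at room temperature, human serum optional. Cells: HEK expressing truncated human NaV1.8 co-transduced with KIR2.1.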
Compound `COc1c(Oc2cnc(C(F)(F)F)c(C)c2C(=O)Nc2ccc(C(N)=O)nc2)ccc(F)c1F` [Compound 358, N-(6-carbamoyl-3-pyridyl)-5-(3,4-difluoro-2-methoxy-phenoxy)-3-methyl-2-(trifluoromethyl)pyridine-4-carboxamide] has an IC50 of 75 nM. For `COc1cc(OC(F)(F)F)ccc1Oc1cc(F)cc(F)c1C(=O)Nc1ccnc(C(N)=O)c1` [Compound 360, 4-[[2,4-difluoro-6-[2-methoxy-4-(trifluoromethoxy)phenoxy]benzoyl]amino]pyridine-2-carboxamide], the IC50 was 14 nM. With `Cc1c(Oc2ccc(C(F)(F)F)cc2C(=O)Nc2ccnc(C(N)=O)c2)ccc(F)c1F` [Compound 361, 4-[[2-(3,4-difluoro-2-methyl-phenoxy)-5-(trifluoromethyl)benzoyl]amino]pyridine-2-carboxamide] the IC50 was 44 nM. With `COc1cc(OC(F)(F)F)ccc1Oc1cc(OC)c(C)c(F)c1C(=O)Nc1ccnc(C(N)=O)c1` [Compound 362, 4-[[2-fluoro-4-methoxy-6-[2-methoxy-4-(trifluoromethoxy)phenoxy]-3-methyl-benzoyl]amino]pyridine-2-carboxamide] the IC50 was 2 nM. For `COc1cc(OC(F)(F)F)ccc1Oc1cc(OC)c(C)c(Cl)c1C(=O)Nc1ccnc(C(N)=O)c1` [Compound 363, 4-[[2-chloro-4-methoxy-6-[2-methoxy-4-(trifluoromethoxy)phenoxy]-3-methyl-benzoyl]amino]pyridine-2-carboxamide], the IC50 was 3 nM. Compound `Cc1nc(C(C)(C)C)cc(Oc2ccc(F)cc2Cl)c1C(=O)Nc1ccnc(C(N)=O)c1` [Compound 364, 6-tert-butyl-N-(2-carbamoyl-4-pyridyl)-4-(2-chloro-4-fluoro-phenoxy)-2-methyl-pyridine-3-carboxamide] has an IC50 of 46 nM. With `COc1cc(Oc2ccc(F)cc2Cl)c(C(=O)Nc2cnc(C(N)=O)nc2)c(F)c1C(F)(F)F` [Compound 366, 5-[[6-(2-chloro-4-fluoro-phenoxy)-2-fluoro-4-methoxy-3-(trifluoromethyl)benzoyl]amino]pyrimidine-2-carboxamide] the IC50 was 13 nM.

Same assay, conditions: E-VIPR assay conducted in the presence of human serum; HEK cells expressing truncated human NaV 1.8; read-out: IC50
Compound `CCc1c(Oc2ccc(C(F)(F)F)c(F)c2C(=O)Nc2ccnc(C(N)=O)c2)ccc(OC(F)(F)F)c1F` [Compound 344, 4-[[6-[2-ethyl-3-fluoro-4-(trifluoromethoxy)phenoxy]-2-fluoro-3-(trifluoromethyl)benzoyl]amino]pyridine-2-carboxamide] has an IC50 of 4.7 nM. With `NC(=O)c1cc(NC(=O)c2c(Oc3ccc(OC(F)(F)F)c(F)c3C3CC3)ccc(C(F)(F)F)c2F)ccn1` [Compound 345, 4-[[6-[2-cyclopropyl-3-fluoro-4-(trifluoromethoxy)phenoxy]-2-fluoro-3-(trifluoromethyl)benzoyl]amino]pyridine-2-carboxamide] the IC50 was 2.5 nM. Compound `CCOc1cc(OC(F)(F)F)ccc1Oc1ccc(C(F)(F)F)c(F)c1C(=O)Nc1ccnc(C(N)=O)c1` [Compound 346, 4-[[6-[2-ethoxy-4-(trifluoromethoxy)phenoxy]-2-fluoro-3-(trifluoromethyl)benzoyl]amino]pyridine-2-carboxamide] has an IC50 of 5.8 nM. With `CCOc1cc(OC(F)(F)F)ccc1Oc1cc(OC)c(C(F)(F)F)c(F)c1C(=O)Nc1ccnc(C(N)=O)c1` [Compound 347, 4-[[6-[2-ethoxy-4-(trifluoromethoxy)phenoxy]-2-fluoro-4-methoxy-3-(trifluoromethyl)benzoyl]amino]pyridine-2-carboxamide] the IC50 was 3.1 nM. With `COc1cc(Oc2ccc(F)c(F)c2C)c(C(=O)Nc2ccnc(C(N)=O)c2)c(F)c1C(F)(F)F` [Compound 348, 4-[[6-(3,4-difluoro-2-methyl-phenoxy)-2-fluoro-4-methoxy-3-(trifluoromethyl)benzoyl]amino]pyridine-2-carboxamide] the IC50 was 20 nM. With `CC(C)(C)c1cc(Cc2ccccc2)c(C(=O)Nc2ccnc(C(N)=O)c2)cn1` [Compound 349, 4-benzyl-6-tert-butyl-N-(2-carbamoyl-4-pyridyl)pyridine-3-carboxamide] the IC50 was > 3000 nM. `CC(C)(C)c1cc(Cc2ccc(F)c(F)c2)c(C(=O)Nc2ccnc(C(N)=O)c2)cn1` [Compound 350, 6-tert-butyl-N-(2-carbamoyl-4-pyridyl)-4-[(3,4-difluorophenyl)methyl]pyridine-3-carboxamide] was tested, and the IC50 was > 3000 nM. With `COc1cc(F)ccc1Oc1cc(C(F)(F)F)nc(C)c1C(=O)Nc1ccnc(C(N)=O)c1` [Compound 351, N-(2-carbamoyl-4-pyridyl)-4-(4-fluoro-2-methoxy-phenoxy)-2-methyl-6-(trifluoromethyl)pyridine-3-carboxamide] the IC50 was 410 nM. For `COc1cc(OC(F)(F)F)ccc1Oc1cc(OC)c(C(F)(F)F)c(F)c1C(=O)Nc1ccnc(C(N)=O)c1` [Compound 352, 4-[[2-fluoro-4-methoxy-6-[2-methoxy-4-(trifluoromethoxy)phenoxy]-3-(trifluoromethyl)benzoyl]amino]pyridine-2-carboxamide], the IC50 was 1.8 nM. `COc1cc(OC(F)(F)F)ccc1Oc1cc(OC)c(C(F)(F)F)c(F)c1C(=O)Nc1ccc(C(N)=O)nc1` [Compound 353, 5-[[2-fluoro-4-methoxy-6-[2-methoxy-4-(trifluoromethoxy)phenoxy]-3-(trifluoromethyl)benzoyl]amino]pyridine-2-carboxamide] showed an IC50 of 17.4 nM. With `COc1cc(OC(F)(F)F)ccc1Oc1ccc(C(F)(F)F)c(F)c1C(=O)Nc1cc(C(N)=O)[n+]([O-])cc1C` [Compound 354, 4-[[2-fluoro-6-[2-methoxy-4-(trifluoromethoxy)phenoxy]-3-(trifluoromethyl)benzoyl]amino]-5-methyl-1-oxido-pyridin-1-ium-2-carboxamide] the IC50 was 30 nM. `COc1cc(OC(F)(F)F)ccc1Oc1ccc(C(F)(F)F)c(F)c1C(=O)Nc1cc(C(N)=O)ncn1` [Compound 355, 6-[[2-fluoro-6-[2-methoxy-4-(trifluoromethoxy)phenoxy]-3-(trifluoromethyl)benzoyl]amino]pyrimidine-4-carboxamide] gave an IC50 of 150 nM. `COc1cc(OC(F)(F)F)ccc1Oc1ccc(C(F)(F)F)c(F)c1C(=O)Nc1cnnc(C(N)=O)c1` [Compound 356, 5-[[2-fluoro-6-[2-methoxy-4-(trifluoromethoxy)phenoxy]-3-(trifluoromethyl)benzoyl]amino]pyridazine-3-carboxamide] gave an IC50 of 3.3 nM. Compound `COc1cc(OC(F)(F)F)ccc1Oc1ccc(C(F)(F)F)c(F)c1C(=O)Nc1cnc(C(N)=O)nc1` [Compound 357, 5-[[2-fluoro-6-[2-methoxy-4-(trifluoromethoxy)phenoxy]-3-(trifluoromethyl)benzoyl]amino]pyrimidine-2-carboxamide] has an IC50 of 15 nM. Compound `COc1cc(Oc2ccc(F)cc2Cl)c(C(=O)Nc2ccnc(C(N)=O)c2)c(F)c1C(F)(F)F` [Compound 365, 4-[[6-(2-chloro-4-fluoro-phenoxy)-2-fluoro-4-methoxy-3-(trifluoromethyl)benzoyl]amino]pyridine-2-carboxamide] has an IC50 of 50 nM. For `COc1cc(Oc2ccc(F)cc2Cl)c(C(=O)Nc2ccc(C(N)=O)nc2)c(F)c1C(F)(F)F` [Compound 367, 5-[[6-(2-chloro-4-fluoro-phenoxy)-2-fluoro-4-methoxy-3-(trifluoromethyl)benzoyl]amino]pyridine-2-carboxamide], the IC50 was 330 nM. In the case of `COc1cc(Oc2ccc(OC(F)(F)F)cc2Cl)c(C(=O)Nc2ccnc(C(N)=O)c2)c(F)c1C(F)(F)F` [Compound 368, 4-[[6-[2-Chloro-4-(Trifluoromethoxy)Phenoxy]-2-Fluoro-4-Methoxy-3-(Trifluoromethyl)Benzoyl]Amino]Pyridine-2-Carboxamide], the IC50 is reported as 5 nM. `COc1cc(Oc2ccc(OC(F)(F)F)cc2Cl)c(C(=O)Nc2cnc(C(N)=O)nc2)c(F)c1C(F)(F)F` [Compound 369, 5-[[6-[2-chloro-4-(trifluoromethoxy)phenoxy]-2-fluoro-4-methoxy-3-(trifluoromethyl)benzoyl]amino]pyrimidine-2-carboxamide] showed an IC50 of 9 nM. For `COc1cc(Oc2ccc(OC(F)(F)F)cc2Cl)c(C(=O)Nc2ccc(C(N)=O)nc2)c(F)c1C(F)(F)F` [Compound 370, 5-[[6-[2-chloro-4-(trifluoromethoxy)phenoxy]-2-fluoro-4-methoxy-3-(trifluoromethyl)benzoyl]amino]pyridine-2-carboxamide], the IC50 was 43 nM. With `COc1cc(Oc2ccc(F)c(F)c2OC)c(C(=O)Nc2ccnc(C(N)=O)c2)c(F)c1C` [Compound 372, 4-[[6-(3,4-difluoro-2-methoxy-phenoxy)-2-fluoro-4-methoxy-3-methyl-benzoyl]amino]pyridine-2-carboxamide] the IC50 was 12 nM. For `COc1c(Oc2cc(Cl)c(C)c(F)c2C(=O)Nc2ccnc(C(N)=O)c2)ccc(F)c1F` [Compound 373, 4-[[4-chloro-6-(3,4-difluoro-2-methoxy-phenoxy)-2-fluoro-3-methyl-benzoyl]amino]pyridine-2-carboxamide], the IC50 was 6 nM. `COc1c(Oc2ccc(OC3CC3)c(F)c2C(=O)Nc2ccnc(C(N)=O)c2)ccc(F)c1F` [Compound 374, 4-[[3-(cyclopropoxy)-6-(3,4-difluoro-2-methoxy-phenoxy)-2-fluoro-benzoyl]amino]pyridine-2-carboxamide] showed an IC50 of 34 nM. `COc1c(Oc2cnc(C(F)(F)F)c(C)c2C(=O)Nc2ccnc(C(N)=O)c2)ccc(F)c1F` [Compound 375, N-(2-carbamoyl-4-pyridyl)-5-(3,4-difluoro-2-methoxy-phenoxy)-3-methyl-2-(trifluoromethyl)pyridine-4-carboxamide] was tested, and the IC50 was 29 nM. In the case of `COc1c(Oc2cc(C(F)(F)F)c(OC)c(F)c2C(=O)Nc2cc(C(N)=O)ncc2C)ccc(F)c1F` [Compound 376, 4-[[6-(3,4-difluoro-2-methoxy-phenoxy)-2-fluoro-3-methoxy-4-(trifluoromethyl)benzoyl]amino]-5-methyl-pyridine-2-carboxamide], the IC50 is reported as 9 nM.
